Assay results taken from PubChem BioAssay (NCI).
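Briefly, cells in 96-well plates were exposed to five compound concentrations for 48 h, and endpoints were estimated by linear interpolation. GI50 is the concentration that inhibits growth by half. TGI: concentration producing complete growth inhibition.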

How the values were obtained:
Assay in all cases: growth of human tumour cells (NCI), 48 h
K-562 leukemia = system: K-562 leukemia
HCT-15 colon = system: HCT-15 colon
SN12C renal = system: SN12C renal
MALME-3M melanoma = system: MALME-3M melanoma
OVCAR-3 ovarian = system: OVCAR-3 ovarian
HT29 colon = system: HT29 colon
HS 578T breast = system: HS 578T breast
HOP-92 NSCLC = system: HOP-92 NSCLC
RXF 393 renal = system: RXF 393 renal
UACC-62 melanoma = system: UACC-62 melanoma

## COc1ccc(/C=C/C(=O)c2ccc3cc(OC)c(OC)cc3c2)cc1OC
K-562 leukemia
  GI50: 3.02 µM
  TGI: > 100 µM
HCT-15 colon
  GI50: 2.69 µM
  TGI: 40.8 µM
SN12C renal
  GI50: 3.41 µM
  TGI: 31.2 µM
MALME-3M melanoma
  GI50: 13.6 µM
  TGI: 30.2 µM
OVCAR-3 ovarian
  GI50: 3.2 µM
  TGI: 13.5 µM
HT29 colon
  GI50: 2.97 µM
  TGI: 9.47 µM
HS 578T breast
  GI50: 3.77 µM
  TGI: 41.2 µM
HOP-92 NSCLC
  GI50: 1.65 µM
  TGI: 6.26 µM
RXF 393 renal
  GI50: 2.82 µM
  TGI: 8.15 µM
UACC-62 melanoma
  GI50: 3.71 µM
  TGI: 16.9 µM

## Nc1ccn(C2CC(O)C(CO)O2)c(=O)n1 (stereo not given)
K-562 leukemia
  GI50: > 5000 µM
  TGI: > 5000 µM
HCT-15 colon
  GI50: > 5000 µM
  TGI: > 5000 µM
SN12C renal
  GI50: > 5000 µM
  TGI: > 5000 µM
MALME-3M melanoma
  GI50: > 5000 µM
  TGI: > 5000 µM
OVCAR-3 ovarian
  GI50: > 5000 µM
  TGI: > 5000 µM
HT29 colon
  GI50: > 5000 µM
  TGI: > 5000 µM
HS 578T breast
  GI50: > 5000 µM
  TGI: > 5000 µM
HOP-92 NSCLC
  GI50: > 5000 µM
  TGI: > 5000 µM
RXF 393 renal
  GI50: > 5000 µM
  TGI: > 5000 µM
UACC-62 melanoma
  GI50: > 5000 µM
  TGI: > 5000 µM

## CCN(CC)CCCOc1cc(O)c2c(=O)cc(-c3ccccc3)oc2c1
K-562 leukemia
  GI50: 1.48 µM
  TGI: 3.67 µM
HCT-15 colon
  GI50: 3.94 µM
  TGI: 14.6 µM
SN12C renal
  GI50: 10.1 µM
  TGI: 22.8 µM
MALME-3M melanoma
  GI50: 9.81 µM
  TGI: 25 µM
OVCAR-3 ovarian
  GI50: 15.5 µM
  TGI: 34.1 µM
HT29 colon
  GI50: 2.36 µM
  TGI: 12.7 µM
HS 578T breast
  GI50: 10.2 µM
  TGI: 26 µM
HOP-92 NSCLC
  GI50: 3.08 µM
  TGI: 16.7 µM
RXF 393 renal
  GI50: 11.6 µM
  TGI: 28.8 µM
UACC-62 melanoma
  GI50: 3.89 µM
  TGI: 12.7 µM

## Nc1c(C(=O)c2cccc(CCC3(O)CCCC3)c2)cnn1-c1ccc(F)cc1
K-562 leukemia
  GI50: 10.1 µM
  TGI: > 25 µM
HCT-15 colon
  GI50: 18.7 µM
  TGI: > 25 µM
SN12C renal
  GI50: 16.2 µM
  TGI: > 25 µM
MALME-3M melanoma
  GI50: 7.88 µM
  TGI: > 25 µM
OVCAR-3 ovarian
  GI50: > 18 µM
  TGI: > 25 µM
HT29 colon
  GI50: 18.2 µM
  TGI: > 25 µM
HS 578T breast
  GI50: 12.7 µM
  TGI: > 25 µM
HOP-92 NSCLC
  GI50: 2.73 µM
  TGI: 20.2 µM
RXF 393 renal
  GI50: 16.9 µM
  TGI: > 25 µM
UACC-62 melanoma
  GI50: 12.5 µM
  TGI: > 25 µM

## CC(=O)OC1CCC2(C)C(CCC3C4CC=C(C(C)=O)C4(C)OC(=O)CC32)C1 (stereo not given)
K-562 leukemia
  GI50: 3.35 µM
  TGI: 10.3 µM
HCT-15 colon
  GI50: 1.13 µM
  TGI: 2.61 µM
SN12C renal
  GI50: 3.26 µM
  TGI: 13.6 µM
MALME-3M melanoma
  GI50: 1.61 µM
  TGI: 3.67 µM
OVCAR-3 ovarian
  GI50: 1.63 µM
  TGI: 3.04 µM
HT29 colon
  GI50: 1.6 µM
  TGI: 3.09 µM
HS 578T breast
  GI50: 3.79 µM
  TGI: 29.8 µM
HOP-92 NSCLC
  GI50: 1.74 µM
  TGI: 4.21 µM
RXF 393 renal
  GI50: 1.15 µM
  TGI: 2.51 µM
UACC-62 melanoma
  GI50: 1.72 µM
  TGI: 3.53 µM

## COC(=O)c1ccc2c(c1)C(=O)c1c-2n(CCCN)c(=O)c2cc([N+](=O)[O-])ccc12
K-562 leukemia
  GI50: 0.0206 µM
  TGI: 2.02 µM
HCT-15 colon
  GI50: 0.0625 µM
  TGI: 0.56 µM
SN12C renal
  GI50: < 0.0233 µM
  TGI: 1.36 µM
MALME-3M melanoma
  GI50: 0.038 µM
  TGI: 1.36 µM
OVCAR-3 ovarian
  GI50: 0.242 µM
  TGI: 1.55 µM
HT29 colon
  GI50: < 0.0236 µM
  TGI: 0.436 µM
HS 578T breast
  GI50: 0.422 µM
  TGI: 1.15 µM
HOP-92 NSCLC
  GI50: 0.301 µM
  TGI: 1.9 µM
RXF 393 renal
  GI50: < 0.0345 µM
  TGI: 0.118 µM
UACC-62 melanoma
  GI50: < 0.0254 µM
  TGI: 0.398 µM

## C[C@H]1[C@H](C)CC[C@]2(C(=O)O)CC[C@]3(C)C(=CC[C@@H]4[C@@]5(C)CC[C@H](OC(=O)/C=C/c6ccc(O)cc6)C(C)(C)[C@@H]5CC[C@]43C)[C@H]12
K-562 leukemia
  GI50: 7.14 µM
  TGI: 47.2 µM
HCT-15 colon
  GI50: 10.9 µM
  TGI: 33 µM
SN12C renal
  GI50: 2.15 µM
  TGI: 5.65 µM
MALME-3M melanoma
  GI50: 1.9 µM
  TGI: 20 µM
OVCAR-3 ovarian
  GI50: 12.5 µM
  TGI: 39.2 µM
HT29 colon
  GI50: 18.8 µM
  TGI: > 100 µM
HS 578T breast
  GI50: 2.81 µM
  TGI: 8.8 µM
HOP-92 NSCLC
  GI50: 16.6 µM
  TGI: 37.2 µM
RXF 393 renal
  GI50: 1.83 µM
  TGI: 5.42 µM
UACC-62 melanoma
  GI50: 15.1 µM
  TGI: 31.6 µM

## Nc1nc(N)c2c(ccc3nccc32)[nH]1
K-562 leukemia
  GI50: 0.319 µM
  TGI: > 100 µM
HCT-15 colon
  GI50: 2.35 µM
  TGI: > 100 µM
SN12C renal
  GI50: 6.91 µM
  TGI: > 68.6 µM
MALME-3M melanoma
  GI50: 5.28 µM
  TGI: 33.6 µM
OVCAR-3 ovarian
  GI50: 7.68 µM
  TGI: 36.6 µM
HT29 colon
  GI50: 1.67 µM
  TGI: > 73.9 µM
HS 578T breast
  GI50: > 21.8 µM
  TGI: > 64.7 µM
HOP-92 NSCLC
  GI50: 4.18 µM
  TGI: 30.6 µM
RXF 393 renal
  GI50: 3.09 µM
  TGI: 17.8 µM
UACC-62 melanoma
  GI50: 2.67 µM
  TGI: 17.6 µM

## CCOC(=O)Cn1c(C)c(/C=N/NC(=O)c2cc3c(ccc4ccccc43)o2)c2ccccc21
K-562 leukemia
  GI50: 0.342 µM
  TGI: > 100 µM
HCT-15 colon
  GI50: 0.408 µM
  TGI: 5.45 µM
SN12C renal
  GI50: 0.707 µM
  TGI: 3.85 µM
MALME-3M melanoma
  GI50: 0.575 µM
  TGI: 3.22 µM
OVCAR-3 ovarian
  GI50: 0.319 µM
  TGI: 1.87 µM
HT29 colon
  GI50: 0.355 µM
  TGI: 1.9 µM
HS 578T breast
  GI50: 0.514 µM
  TGI: 25.2 µM
HOP-92 NSCLC
  GI50: 0.354 µM
  TGI: 4.94 µM
RXF 393 renal
  GI50: 0.319 µM
  TGI: 1.08 µM
UACC-62 melanoma
  GI50: 0.3 µM
  TGI: 11 µM
